Reference: patent publication US6461997B1, “Triazole sulfones having herbicidal activity” (Monsanto Technology LLC, priority 1999, dated 2002)

How the values were obtained:
[1] = test system: SORVU (shattercane); assay: Pre-emergence herbicidal activity, warm season; format: in vivo, Sorghum vulgare; settings: GR80 = lowest tested rate (300, 100, 30, 10 g/ha) with 80% or greater inhibition; approx. 14 days after treating; 30/21° C.
Method in brief: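 Activity is expressed as the rate giving 80% inhibition, with 300, 100, 30 and 10 g/ha typically tested. An asterisk marks activity short of 80% at the top rate. Warm-season grasses were held at 30/21 °C; cool-season blackgrass and wild buckwheat at 18/13 °C; scoring at about 14 days.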

[2] = test system: SASKR (russian thistle); assay: Pre-emergence herbicidal activity, cool season; format: in vivo, Salsola kali; settings: lowest tested rate with 80% or greater inhibition; rates 300, 100, 30, 10 g/ha; about 14 days
Method in brief: (§1)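 GR80 values derive from percent inhibition relative to untreated plants, read roughly 14 days after sowing and pre-emergence soil-surface treatment (compound in 50:50 acetone/water; rates typically 10, 30, 100, 300 g/ha). Warm-season weeds grew at 30/21° C day/night, cool-season ones at 18/13° C; an asterisk marks activity without reaching 80% at the highest rate.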

[3] = test system: STEME (common chickweed); assay: Pre-emergence herbicidal activity, cool season; format: in vivo, Stellaria media; settings: lowest tested rate with 80% or greater inhibition; rates 300, 100, 30, 10 g/ha; about 14 days
Method in brief: as §1

[4] = test system: DATST (jimsonweed); assay: Pre-plant incorporated (PPI) herbicidal activity, warm season; format: in vivo, Datura stramonium; settings: for Percent inhibition DATST: PPI application; for PPI activity (GR80) DATST: pre-plant incorporated, GR80 = lowest tested rate with 80% or greater inhibition, approx. 14 days after treating, 30/21° C.
Method in brief: (§2)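 Pots are filled with topsoil, seeded, and topped with cover soil carrying the sprayed, mixed-in compound. After 0.64 cm overhead irrigation, growth proceeds at 30/21° C or 18/13° C day/night with mist or subirrigation. Scoring is percent inhibition relative to untreated controls about two weeks on.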

[5] = test system: ECHCG (barnyardgrass); assay: as above; format: in vivo, Echinochloa crus-galli; settings: for Percent inhibition ECHCG: PPI application; for PPI activity GR80, ECHCG: pre-plant incorporated, lowest tested rate with 80% or greater inhibition, about 14 days
Method in brief: as §2

[6] = test system: PANMI (wild proso millet); assay: as above; format: in vivo, Panicum miliaceum; settings: for Percent inhibition PANMI: PPI application; for PPI activity GR80, PANMI: pre-plant incorporated, lowest tested rate with 80% or greater inhibition, about 14 days
Method in brief: as §2

[7] = test system: DIGSA (large crabgrass); assay: as above; format: in vivo, Digitaria sanguinalis; settings: for Percent inhibition DIGSA: PPI application; for PPI activity GR80, DIGSA: pre-plant incorporated, lowest tested rate with 80% or greater inhibition, about 14 days
Method in brief: as §2

[8] = test system: VERPE (creeping speedwell); assay: Pre-plant incorporated (PPI) herbicidal activity, cool season; format: in vivo, Veronica persicaria; settings: for PPI activity GR80, VERPE: pre-plant incorporated, lowest tested rate with 80% or greater inhibition, about 14 days; for Percent inhibition VERPE: weed, PPI application
Method in brief: as §2

[9] = test system: AGRRE (quackgrass (seedling)); assay: as above; format: in vivo, Elymus repens; settings: for PPI activity GR80, AGRRE: pre-plant incorporated, lowest tested rate with 80% or greater inhibition, about 14 days; for Percent inhibition AGRRE: weed, PPI application
Method in brief: as §2

## CCN(CC)C(=O)n1cnc(S(=O)(=O)C(F)(F)C(F)F)n1 [Example 16]
[1]
  Pre-emergence activity (GR80) SORVU: 100 g/ha
[2]
  Pre-emergence activity GR80, SASKR: 100 g/ha
[3]
  Pre-emergence activity GR80, STEME: 300 g/ha
[4]; 10 g/ha
  Percent inhibition DATST: 0%
[4]; 30 g/ha
  Percent inhibition DATST: 0%
[4]; 100 g/ha
  Percent inhibition DATST: 20%
[4]; 300 g/ha
  Percent inhibition DATST: 70%
[4]; 900 g/ha
  Percent inhibition DATST: 100%
[4]
  PPI activity (GR80) DATST: 100 g/ha
[5]; 10 g/ha
  Percent inhibition ECHCG: 90%
[5]; 30 g/ha
  Percent inhibition ECHCG: 100%
[5]; 100 g/ha
  Percent inhibition ECHCG: 100%
[5]; 300 g/ha
  Percent inhibition ECHCG: 100%
[5]; 900 g/ha
  Percent inhibition ECHCG: 100%
[5]
  PPI activity GR80, ECHCG: 30 g/ha
[6]; 10 g/ha
  Percent inhibition PANMI: 100%
[6]; 30 g/ha
  Percent inhibition PANMI: 100%
[6]; 100 g/ha
  Percent inhibition PANMI: 100%
[6]; 300 g/ha
  Percent inhibition PANMI: 100%
[6]; 900 g/ha
  Percent inhibition PANMI: 100%
[6]
  PPI activity GR80, PANMI: 30 g/ha
[7]; 10 g/ha
  Percent inhibition DIGSA: 70%
[7]; 30 g/ha
  Percent inhibition DIGSA: 100%
[7]; 100 g/ha
  Percent inhibition DIGSA: 90%
[7]; 300 g/ha
  Percent inhibition DIGSA: 100%
[7]; 900 g/ha
  Percent inhibition DIGSA: 100%
[7]
  PPI activity GR80, DIGSA: 10 g/ha
[8]
  PPI activity GR80, VERPE: 100 g/ha
[8]; 10 g/ha
  Percent inhibition VERPE: 100%
[8]; 30 g/ha
  Percent inhibition VERPE: 95%
[8]; 100 g/ha
  Percent inhibition VERPE: 100%
[8]; 300 g/ha
  Percent inhibition VERPE: 100%
[8]; 900 g/ha
  Percent inhibition VERPE: 100%
[9]
  PPI activity GR80, AGRRE: 300 g/ha
[9]; 10 g/ha
  Percent inhibition AGRRE: 0%
[9]; 30 g/ha
  Percent inhibition AGRRE: 0%
[9]; 100 g/ha
  Percent inhibition AGRRE: 0%
[9]; 300 g/ha
  Percent inhibition AGRRE: 20%
[9]; 900 g/ha
  Percent inhibition AGRRE: 70%

## C=C(CC(F)(F)S(=O)(=O)c1ncn(C(=O)N(CC)CC)n1)C[Si](C)(C)C [Example 20]
[1]
  Pre-emergence activity (GR80) SORVU: 300 g/ha
[2]
  Pre-emergence activity GR80, SASKR: [empty]
[3]
  Pre-emergence activity GR80, STEME: [empty]
[4]; 10 g/ha
  Percent inhibition DATST: 0%
[4]; 30 g/ha
  Percent inhibition DATST: 0%
[4]; 100 g/ha
  Percent inhibition DATST: 0%
[4]; 300 g/ha
  Percent inhibition DATST: 20%
[4]; 900 g/ha
  Percent inhibition DATST: 60%
[4]
  PPI activity (GR80) DATST: 300 g/ha
[5]; 10 g/ha
  Percent inhibition ECHCG: 0%
[5]; 30 g/ha
  Percent inhibition ECHCG: 0%
[5]; 100 g/ha
  Percent inhibition ECHCG: 20%
[5]; 300 g/ha
  Percent inhibition ECHCG: 70%
[5]; 900 g/ha
  Percent inhibition ECHCG: 100%
[5]
  PPI activity GR80, ECHCG: 300 g/ha
[6]; 10 g/ha
  Percent inhibition PANMI: 0%
[6]; 30 g/ha
  Percent inhibition PANMI: 20%
[6]; 100 g/ha
  Percent inhibition PANMI: 100%
[6]; 300 g/ha
  Percent inhibition PANMI: 65%
[6]; 900 g/ha
  Percent inhibition PANMI: 100%
[6]
  PPI activity GR80, PANMI: 100 g/ha
[7]; 10 g/ha
  Percent inhibition DIGSA: 0%
[7]; 30 g/ha
  Percent inhibition DIGSA: 80%
[7]; 100 g/ha
  Percent inhibition DIGSA: 90%
[7]; 300 g/ha
  Percent inhibition DIGSA: 100%
[7]; 900 g/ha
  Percent inhibition DIGSA: 99%
[7]
  PPI activity GR80, DIGSA: 100 g/ha
[8]
  PPI activity GR80, VERPE: 30 g/ha
[8]; 10 g/ha
  Percent inhibition VERPE: 0%
[8]; 30 g/ha
  Percent inhibition VERPE: 90%
[8]; 100 g/ha
  Percent inhibition VERPE: 50%
[8]; 300 g/ha
  Percent inhibition VERPE: 90%
[8]; 900 g/ha
  Percent inhibition VERPE: 95%
[9]
  PPI activity GR80, AGRRE: 300 g/ha
[9]; 10 g/ha
  Percent inhibition AGRRE: 0%
[9]; 30 g/ha
  Percent inhibition AGRRE: 10%
[9]; 100 g/ha
  Percent inhibition AGRRE: 65%
[9]; 300 g/ha
  Percent inhibition AGRRE: 40%
[9]; 900 g/ha
  Percent inhibition AGRRE: 80%
